Experimental data: US20140154717A1, “METHOD FOR DETECTING CANCER CELL USING FLUORESCENTLY LABELED L-GLUCOSE DERIVATIVE, AND CANCER CELL-IMAGING AGENT COMPRISING FLUORESCENTLY LABELED L-GLUCOSE DERIVATIVE” (priority 2011, published 2014)
Entries after “also recorded” stand apart in the source; their conditions may differ. Each block holds one compound with its values, some of them ahead of it.

Legend:
[1] = system: acutely dissociated neurons; test: Confocal imaging of 2-NBDLM+2-TRLG mixture in acutely dissociated neurons of substantia nigra pars reticulata; format: cell-based, mouse
Description: NaCl 150 mM, KCl 5 mM, MgCl2 1 mM, CaCl2 2 mM, HEPES 10 mM, pH was adjusted to 7.4 by 1M Tris(2-amino-2-hydroxymethyl-1,3-propanediol) solution. The glucose concentration was 10 mM. For the purpose of inhibiting entrance and elimination of fluorescently labeled mannose via a gap junction/hemichannel, 0.1 mM Carbenoxolone (SIGMA #C4790) was added.
NaCl 124 mM, NaHCO3 26 mM, KCl 5 mM, KH2PO4 1.24 mM, CaCl2 2.4 mM, MgSO4.7H2O 1.3 mM, Glucose 10 mM, adjusted to pH7.4 by 95% O2-5% CO2 aeration.
A solution prepared by dissolving 5 mg of poly-L-lysine hydrobromide (SIGMA P6282) in 50 mL of 0.15 M boric acid (adjusted to pH 8.4 with […]) was stocked and refrigerated. This stock solution was diluted at 1/500 to 1/1000 with 0.15 M boric acid, and a cover slip (13 mm×22 mm, Matsunami No. 0 glass) was immersed in the diluted solution and allowed to fix at room temperature for 20 minutes, then, rinsed with distilled water and naturally dried.
Since 2-NBDLM is a stereoisomer of 2-NBDLG and both compounds have the same molecular weight, these compounds were prepared by basically the same method as for preparation of 2-NBDLG liquid and 2-NBDLG+2-TRLG mixture described in the prior publication WO2010/016587 of the present inventors. The concentration of a solution for the administration was as follows. The whole quantity of a 0.5 mg vial was dissolved in 14.6 mL of a HEPES solution for image acquisition to give a 2-NBDLM solution having a final concentration of 100 μM. The dissolving method was carried out similarly to that for preparation of a 2-NBDLG solution in Example 3.
Acutely dissociated neuronal cells were prepared as described below according to the same method as described in the prior publication WO2010/016587 of the present inventors.
Postnatal 13 to 17-day old (juvenile stage) C57BL/6J mice were anesthetized deeply with urethane (i.p. 1.6 g/kg), decapitated according to an ordinary method, then, brain was taken out while pouring a cold Ringer's solution (0° C.) for dissociation, and placed on an ice-cold petri dish and immediately trimmed, then, coronally sectioned brain slices having a thickness of 400 or 500 μm were prepared by a linear slicer (Dosaka Pro7) in a cold Ringer's solution (0° C.). Then, the slice was allowed to restore for 1 hour at room temperature in a chamber (Acrylic incubation chamber manufactured by Harvard Apparatus) containing the above-described Ringer's solution circulating therein through which 95% O2-5% CO2 had been aerated.
The brain slice was immersed in an enzyme solution (31° C.; kept at pH7.4 by aeration with 95% O2-5% CO2) prepared by dissolving a proteolytic enzyme Pronase (10 mg/60 mL) in the above-described Ringer's solution and enzymatically treated. After predetermined period, the enzymatic reaction was stopped by immediately immersing the brain slice in 50-100 mL of a 10 mM glucose-containing HEPES solution at room temperature.
A 60 or 100 mm plastic dish having a silicon plate attached to the bottom was filled with a 10 mM glucose-containing HEPES solution (room temperature, obtained by removing Carbenoxolon from a HEPES solution for confocal image acquisition), and the above-described brain slice was immersed in the solution. Two 27 gauge syringe needles were used to immobilize the brain slice, and left and right mesencephalic substantia nigra pars reticulata were punched out under a microscope with a 18 gauge syringe needle having a tip deformed into an ellipsoidal shape, and preserved at room temperature in the above-described HEPES solution (35 mm culture dish).
Neurons were dissociated by trituration with glass pipettes adjusted to have various point diameters, and allowed to adhere to a glass cover slip coated with poly-L-lysine.
Administration of a mixture was carried out in the same manner as the method of administration to MIN6 cells described in Example 3 (4) to (6).

[2] = Maximum excitation and fluorescence wavelength; format: physicochemical
tumor cells (C6 glioma) = test: In vivo fluorescent imaging using C6 tumor model mice (rat glioma C6 cells transplanted subcutaneously in nude mice); design: species or system mouse
Description: C6 cells were prepared according to an ordinary method so that the cell number was 2×10^7 cells/mL.
C6 cells were seeded on a 10 cm petri dish, allowed to stand still in a CO2 incubator, and cultured at 37° C. The culture medium was exchanged once every two days.
1 g/L glucose-containing Dulbecco's modified Eagle's Medium (DMEM) (Nacalai No. 08456-65), to which Fetal Bovine Serum (Equitech-Bio SFBM) was added so that the final concentration was 10% and penicillin-streptomycin (Nacalai No. 26253-84) was added so that the final concentration was 1%, was used.
5 to 6-week old athymic nude mice (BALB/cAJcl-nu/nu) were transplanted with 50 μL of a cell suspension adjusted to 2×10^7 cells/mL subcutaneously around the root of right hind paw, under isoflurane anesthesia. The transplanted tumor cells were observed until growing to about 200 to 300 mm^3, and used in vivo fluorescent imaging.
C6 tumor model mice were allowed to stand still in an in vivo fluorescence imaging apparatus IVIS (registered trademark) Kinetics (Caliper Life sciences) under isoflurane anesthesia and autofluorescence of the mouse skin was measured, and subsequently, 400 nmol (100 μL) of 2-NBDLG or 2-NBDG dissolved in physiological saline was administered from the tail vein over a period of 30 seconds, and measurement of the fluorescence imaging was started again from one minute after starting administration. The in vivo fluorescence imaging was measured at an excitation wavelength of 465 nm using a GFP filter (transmittable fluorescence wavelength: 515-575 nm). The measurement was conducted for 45 minutes, and images were taken every one minute during the initial 20 minute and every 5 minutes from 20 to 45 minutes, obtaining 25 images in total. The accumulated values (fluorescence value) of 2-NBDLG and 2-NBDG in the interested area were obtained by subtracting the autofluorescence images from the 25 images taken after administration of 2-NBDLG or 2-NBDG.
A vial of 0.5 mg of 2-NBDLG or 2-NBDG was dissolved in 400 μL of physiological saline directly before the experiment, to prepare a solution having a final concentration of 400 nmol/100 μL.

[3] = system: mouse insulinoma cells (MIN6); test: Uptake into MIN6 cells with or without inhibitors, fluorescence microplate reader (Flex Station); format: cell-based; details: 200 μM, 5 minutes
Description: A difference in the uptake of 2-NBDLG (200 μM) and 2-NBDG (200 μM) into mouse insulinoma cells (MIN6) each applied for 5 minutes was analyzed quantitatively by a fluorescence microplate reader Flex Station (manufactured by Molecular Devices Corporation) in the condition whether or not various inhibitors are present. The well used for measurement was a 96-well clear bottomed well plate μ CLEAR-PLATE (Greiner bio-one, BLACK, 96 well, #655090) having longitudinally […] to 12 twelve columns, and MIN6 cell suspension prepared at a proportion of 6×10^5 cells/mL was seeded uniformly into wells from line B to line G at the third column and the fifth column each in an amount of 15 μL. For medium exchange, the half quantity was exchanged every two days in 0 to 4 DIV (days in vitro), and from 5 DIV or later, exchanged every day, and on days 10 to 13 (10 to 13 DIV), the cells were subjected to an experiment. Line A and line H were used as a control for checking correct washout, without seeding cells. In the fourth column, cells were not present, and wells in this column were used as a blank containing only Krebs Ringer buffer solution (KRB, containing 0.1 mM gap junction inhibitor carbenoxolone and 5.6 mM glucose). Evaluation was done in a way that 2-NBDLG or 2-NBDG was charged in each tube of a 8-strip PCR tube, and sucked using a 8-channel pipette and dropped simultaneously into wells. In this way, administration to wells for 2-NBDLG and to wells for 2-NBDG can be done simultaneously, making reliable evaluation possible. As described above, cells are present in 12 wells in the third and the fifth two columns, and these were divide into 4 groups each having 3 wells according to a difference either 2-NBDLG or 2-NBDG and whether an inhibitor is present or absent. Specifically, when checking the effect by the presence or absence of a GLUT inhibitor Cytochalasin B (10 μM) on the uptake of 2-NBDLG (200 μM) and 2-NBDG (200 μM), first, in wells, which are planned to be measured in the presence of Cytochalasin B, Cytochalasin B was added 5 minutes prior to the administration of the fluorescently labeled glucose derivative. Before administration of a fluorescently labeled glucose derivative, the autofluorescence was measured in each well. The measurement was done with Flex Station in Well Scan Mode and in the Bottom Read position at Ex 470 nm, Em 540 nm, Cut off 495 nm, Averaging 3, and Photomultiplier sensitivity: high. In Well Scan Mode of the fluorescence microplate reader Flex Station, one well was divided into nine observation areas and these are measured independently. The presence of approximately 5000 cells in each of 9-divided areas was separately confirmed by Z section measurement of a realtime deconvolution microscope. 2-NBDG and 2-NBDLG were administered with or without Cytochalasin B (37° C., 5 minutes), and after cessation of administration, an operation of adding 250 μL of a KRB solution containing no fluorescently labeled glucose into 50 μL of a solution in a well was repeated 7 times while measuring with a stopwatch, thereby performing washout until the fluorescence intensities of wells in line A and line H set as a control group became equal to the fluorescence intensity of the blank well containing no cell. This process required 7 minutes, and even if cells having broken plasma membrane condition are brought into contact with 2-NBDG and 2-NBDLG, and even if these compounds are once taken up into the cell, these compounds are already eliminated out of the cell and are washed away in measurement, therefore, contribution to an increase in the fluorescence intensity in the whole observation area was judged to be in an ignorable level. This was supported by a separate pharmacological inhibition experiment in which the increase in the fluorescence intensity nearly disappears in the presence of an inhibitor. The above-described method was carried out similarly in the case of other inhibitors. […]

[4] = 100 μM 2-NBDLM+20 μM 2-TRLG for 5 minutes

SMILES: O=[N+]([O-])c1ccc(NC2C(O)OC(CO)[C@H](O)C2O)c2nonc12 (stereo partly drawn) [2-NBDLM, 2-Deoxy-2-[N-(7-nitrobenz-2-oxa-1,3-diazol-4-yl)amino]-L-mannose]
fluorescence in degraded cells, 10 minutes after cessation of administration ([1]; 100 μM 2-NBDLM+20 μM 2-TRLG): already decreased significantly
fluorescence in healthy neuron, 10 minutes after cessation of administration ([1]; 100 μM 2-NBDLM+20 μM 2-TRLG): preserved in the cell
fluorescence in healthy neuron, 22 minutes after cessation of administration ([1]; 100 μM 2-NBDLM+20 μM 2-TRLG): preserved in the cell
uptake into healthy neuron, 2 minutes after cessation of administration ([1]; 100 μM 2-NBDLM+20 μM 2-TRLG): all cells take up
uptake into normal neurons (conclusion) ([1]; 100 μM 2-NBDLM+20 μM 2-TRLG): taken up into normal mouse neurons
uptake into degraded cells during administration [1, 4]: completely invading a cell
uptake into healthy neuron during administration [1, 4]: taken up into a cell during administration
Maximum excited wavelength [2]: 472 nm
Maximum fluorescence wavelength [2]: 539 nm

Maximum fluorescence wavelength [2]: 570 nm
SMILES: CN(C)S(=O)(=O)c1ccc(N[C@H](C=O)[C@H](O)[C@@H](O)[C@@H](O)CO)c2nonc12 [2-DBDLG]

SMILES: O=[N+]([O-])c1ccc(NC2C(O)OC(CF)[C@H](O)C2O)c2nonc12 (stereo partly drawn) [6-F-2-NBDLG, 2,6-Dideoxy-6-fluoro-2-[N-(7-nitrobenz-2-oxa-1,3-diazol-4-yl)amino]-L-glucopyranose]
Maximum excited wavelength [2]: 472 nm
Maximum fluorescence wavelength [2]: 538 nm

SMILES: O=[N+]([O-])c1ccc(NC2C(O)OC(CO)[C@@H](O)[C@@H]2O)c2nonc12 (stereo partly drawn) [2-NBDG, 2-[N-(7-nitrobenz-2-oxa-1,3-diazole-4-yl)amino]-2-deoxy-D-glucose, reference compound]
fluorescence values at tumor-transplanted part (Tumor) versus normal tissue (BG), FIG. 3 (tumor cells (C6 glioma); 400 nmol i.v., temporal change over 45 minutes, same result in 6 examples): fluorescence values at normal tissue (red square, BG) are larger than at the tumor-transplanted part
time from which accumulations at the tumor cell-transplanted part were recognized (tumor cells (C6 glioma); 400 nmol/100 μL from the tail vein): around 5 minutes after administration
contrast between tumor-transplanted part and normal tissue (adipocyte-rich dorsal part near neck) (tumor cells (C6 glioma); 400 nmol/100 μL from the tail vein, non-fasted mice): poor contrast; also recorded: not sufficient
uptake/accumulation in normal tissue (tumor cells (C6 glioma); 400 nmol/100 μL from the tail vein, normal tissue (fat tissue on the back, between back bones, muscle)): Intense accumulations
effect of GLUT inhibitor Cytochalasin B on uptake into MIN6 cells ([3]; 37° C., Cytochalasin B (10 µM, CB)): significant decrease
uptake into MIN6 cells in buffer containing Na+ versus no Na+ ion (SGLT) ([3]; 37° C., Na(−) buffer, choline substituted): no significant difference
effect of Phloretin on uptake into MIN6 cells ([3]; Phloretin (150 μM, PHT)): underwent inhibition of the uptake
